# Experimental data published in patent publication US20250154611A1, “SYSTEMS AND METHODS TO DETECT STEM CELL STRESS AND USES THEREOF” (Wayne State University, priority 2014, published 2025).
# Like-named read-outs stand apart in the source and are kept apart here. Where a SMILES comes first, the peptide text is derived from it. The star is where a group is joined. Cbz = O=C(OCc1ccccc1)*
# Experiments:
# TSCs = format: cell-based, mouse; details: 7 days
# Protocol: (FIG. 10A) TSCs were incubated for 7 days±FGF4 at 20%, 2%, or 0.5% O2 with the mitochondrial activator DCA. TSCs were cultured for 7 days at 20% O2,±FGF4, and with mitochondrial inhibitors antimycin A or cyanide (FIG. 10B). The cells were then lysed and assayed by qPCR for the relative levels of 5 terminal differentiation markers PL1, PL2, Plf, CtsQ, and synTa. The experiment was repeated 3 times and bars show the average±s.e.m., (a) indicates no significant difference and (b) indicates a significant difference (p<0.05) between TSCs with FGF4 removed without or with mitochondrial agonist or antagonist. Where changes in markers are significant (b), the increase or decrease due to mitochondrial agonist or antagonist is shown above the histogram bar.
# RNA isolation and quantitative reverse transcription-PCR (qRT-PCR). […] Briefly, DNase-treated total RNA was isolated following cDNA preparation using QuantiTect Reverse Transcription Kit iScript (Qiagen). Assays were performed using Fast SYBR Green on a System 7500 instrument (Applied Biosystems), and a one-step program for 40 cycles. Each experiment was carried out in triplicate, and all three genes for TSC multipotency were normalized against 18S rRNA.
# To test the necessity and sufficiency of mitochondrial function for TSC differentiation, 2 mitochondrial inhibitors and an agonist were used. The mitochondrial activator dichloroacetate (DCA) was tested at 0.5%-20% O2 (FIG. 10A).
# Cyanide and antimycin A inhibit COX (part of mitochondrial complex IV) and complex III, respectively, and were used to inhibit the ETC and thus the generation of Δψm for 7 days of culture at optimal differentiation conditions (FIG. 10B).
# [1] = tested on: mitochondrial membrane potential (ΔΨm)
# Protocol: Mitochondrial staining by MitoTracker dye. TSC were cultured at different O2 levels at least 24 hr stained with DAPI (D21490, Invitrogen) alone or with either MitoTracker Red FM (Invitrogen), TMRM (T668), or JC-1 (T3168, Invitrogen) alone or with the uncoupler FCCP (Sigma), and analyzed under a DM-IRE2 fluorescence microscope (Leica, Germany) using Simple PCI image acquisition software (Hamamatsu, Sewickley, PA).
# In more detail, TSC were cultured on coverslips in 12-well plates at different O2 levels either with or without FGF4, for 48 hr. Before experiments were conducted at low O2 tension, TSC were adapted in a hypoxia chamber (Billups-Rothenberg, CA) at the given O2 level described above for at least 24 hr. Nuclear dye 2.5 μg/ml DAPI (D21490, Invitrogen) was applied as a counterstain 1 hr before TSC were incubated alone with either 50 nM MitoTracker Red FM (M22425m, Invitrogen) for 30 min, 20 nM TMRM (T668) for 30 min, or 3.25 nM JC-1 (T3168, Invitrogen) for 45 min, or in combination with the uncoupler FCCP (1 nM, Sigma, C2920). After staining, the TSC were washed with PBS 2 times and immediately analyzed under a DM-IRE2 fluorescence microscope (Leica, Germany) using Simple PCI image acquisition software (Hamamatsu, Sewickley, PA).
# The roles of FGF4 and O2 on Δψm associated with ATP production was determined. […]
# AKT = target: T1, AKT (Mus musculus, UniProt P31750); experiment: phospho-AKT western blot in mESCs under 200 mM sorbitol; format: cell-based; details: mESCs, 4 hr, 200 mM sorbitol
# T1 construct: endogenous in cells; host or cells: mESC-D3 (ATCC)
# Protocol: (§1) FIG. 14. […] Blots are representative of triplicate experiments. Phospho-proteins and their loading controls are grouped between black lines.
# (§2) FIG. 15. […] Blots are representative of triplicate experiments.
# (§3) Hyperosmotic activation of signaling enzymes. […] Zhong, 2010; Xie, 2011. […] To determine the kinetics of activation of these five kinases in the described system, mESCs were treated with 200 mM sorbitol for 1 hr. Expression levels of the activated (i.e., phosphorylated) enzymes were assayed by western blot analysis (FIG. 14), including phospho-p38MAPK, phospho-JNK, phospho-MEK1/2, and phospho-AKT (the downstream effector of PI3K signaling).
# (§4) Efficacy of enzyme inhibitors.
# [2] = tested on: Oct4, Nanog, and Rex1 protein in mESCs; experiment: Proteasome inhibitor effects on Oct4, Nanog, and Rex1 during sorbitol stimulation of mESCs; format: cell-based, mouse; details: 4 hr; for stress-induced loss of Oct4, Nanog, and Rex1: 200 mM sorbitol
# Protocol: FIG. 17. MG132 proteasome inhibitor effects on Oct4, Nanog, and Rex1 during sorbitol stimulation of mESCs. mESCs were treated for 4 hr with 0 or 200 mM sorbitol±10 μM MG132 and then lysed.
# FIGS. 18A-18D. Lactacystin effects on Oct4, Nanog, Rex1 during sorbitol stimulation of mESCs. mESCs were treated for 4 hr±200 mM sorbitol±25, 50 μM lactacystin, then photographed before lysing. […] ANOVA+Student-Newman-Keuls post hoc tests, Oct4 p=0.000; Nanog p=0.035; Rex1 p=0.11. FIG. 18D) mESCs were stressed with or without lactacystin and micrographs were taken at 100×. Scale bar=50 μm.
# Hyperosmotic-stress-induced loss of potency TFs due to proteasomal degradation. To determine the mechanism of TF protein loss during stress, mESCs were treated with one of two proteasome inhibitors, MG132 (FIG. 17) and lactacystin (FIGS. 18A-18D). […] Oct4 loss was reversed by 75%, Nanog by 93%, and Rex1 by 310% in 4 hr of proteasome inhibition by MG132.
# [3] = tested on: Oct4, Nanog, and Rex1 expression in mESC; experiment: TF expression levels during hyperosmotic stress +/- enzyme inhibition in mESC monolayer culture (western blot)
# Protocol: Histograms show relative expression of each protein when normalized to amido black expression. Error flags represent standard error of the mean (n≥3). “*” denotes significant difference from unstressed mESCs. “a” indicates significant difference from stress-only time point. ANOVA and Student-Newman-Keuls post hoc tests (P<0.05).
# (FIG. 20A) mESCs were incubated±200 mM sorbitol for 0-24 hr and ±p38 inhibitor SB202190 (10 μM). mESCs were lysed, and proteins were fractionated using SDS-PAGE, blotted, and probed for Oct4 or Nanog. (FIG. 20B) Phase micrographs of mESCs following 24 hr of culture in the presence/absence of stress and p38MAPK inhibitor, SB202190. Scale bars=50 μm. (FIG. 20C) mESCs were incubated±200 mM sorbitol for 0-24 hr±either U0126 or LY294002 (25 μM). mESCs were lysed and proteins were fractionated using SDS-PAGE, blotted, and probed for Oct4 or Nanog. Histograms show relative expression of each protein when normalized to amido black expression. Error flags represent standard error of the mean (n≥3). “*” denotes significant difference from unstressed mESCs. “a” indicates significant difference from stress-only time point. ANOVA and Student-Newman-Keuls post hoc tests (P<0.05).
# (FIG. 21A) mESCs were incubated±200 mM sorbitol for 0-24 hr±(A) p38MAPK inhibitor SB202190 (10 μM) or PI3K inhibitor LY294002 (25 μM); or JNK inhibitor L-JNKi-1 (2 μM). mESCs were lysed, and proteins were fractionated using SDS-PAGE, blotted, and probed for Rex1. Histograms show relative expression of each protein when normalized to amido black expression. Error flags represent standard error of the mean (n≥3). “*” denotes significant difference from unstressed mESCs. “a” indicates significant difference from stress-only time point. ANOVA and Student-Newman-Keuls post hoc tests (P<0.05). (FIG. 21B) To test the reversibility of the Rex1 loss during sorbitol stress, mESCs were incubated−200 mM sorbitol for 0-4 hr and then sorbitol was removed from some dishes for the remaining 20 hr (lane 5). Histogram is representative of two independent experiments.
# Cell culture and stimulation. mESC-D3 cells (ATCC, Manassas, VA) were cultured in the absence of feeder cells in Dulbecco's modified Eagle's medium (Gibco, Grand Island, NY) supplemented with 15% mESC-screened fetal bovine serum (HyClone, Logan, UT), 2 mM L-glutamine, 1 mM sodium pyruvate, 1 mM nonessential amino acids, 0.1 mM 2-mercaptoethanol (Sigma), and 1,000 U/mL murine leukemia inhibitory factor (LIF; Millipore, Temecula, CA) on 0.1% gelatin-coated dishes at 37° C. in humidified air with 5% CO2. […] Osmolality was determined by freezing point depression using Advanced Instruments Wide Range Osmometer 3W2 (Advanced Instruments, Norwood, MA).
# Enzyme inhibition. Enzyme inhibitors were chosen according to the specificity reported in the kinase inhibitor literature. […] Inhibitor concentrations were determined following dose response experiments for each inhibitor based on the range of concentrations determined from the mESC and kinase inhibitor literature.
# ERK1/2 = experiment: phospho-ERK1/2 western blot in mESCs under 200 mM sorbitol
# Protocol: Cells were lysed and proteins were fractionated using SDS-PAGE, blotted, and probed for phospho-p38 (Thr180/Tyr182), phospho-JNK (Thr183/Tyr185), phospho-ERK1/2 (Thr202/Tyr204), or phospho-AKT (Ser473). Blots are representative of triplicate experiments.
# Western blot analysis. Sodium dodecyl sulfate-polyacrylamide gel electrophoresis and western immunoblot analysis of mESC lysates were performed as previously described. […] Cells were harvested with cold lysis buffer (Cell Signaling) and protein was quantified by BCA assay (Pierce, Rockford, IL). Ten to twenty micrograms of aliquots were fractionated on 10% polyacrylamide precast gels (Bio-Rad, Hercules, CA), transferred to nitrocellulose membranes (Amersham Biosciences, Aylesbury, UK), probed overnight with primary antibodies, and developed as previously described. […] Protein bands were visualized using the ECL Advance Western Blotting Detection Kit (GE Healthcare, Waukesha, WI), blot was scanned to obtain an electronic image, and intensity of protein bands was quantified using Image J analysis software (rsbweb.nih.gov) and normalized to amido black staining. […] Data are expressed as the change in expression relative to no treatment at time zero.
# [4] = tested on: Oct4, Nanog, and Rex1 expression in mESC; experiment: Inhibitor only effects on Oct4, Nanog, and Rex1 expression (western blot); format: cell-based, mouse
# p38MAPK = p38MAPK (Mus musculus, UniProt P47811); experiment: phospho-p38 western blot in mESCs under 200 mM sorbitol; format: cell-based
# Protocol: as §1, §2, §3, §4
# [5] = tested on: Trophoblast stem cells (TSCs); experiment: qPCR of lineage and multipotency markers in TSCs with or without SAPK inhibitors at 20, 2 or 0.5% O2; format: cell-based, mouse; details: TSCs + FGF4, 0.5-20% O2
# Protocol: FIGS. 1A-1C. SAPK mediates decreased Gcm1 and Tpbpa and increased Hand1 at all O2 levels. There are greater effects as O2 deviates from the stemness optimum of 2% O2. Trophoblast stem cells (TSCs) were passaged and cultured at 20, 2, or 0.5% O2 overnight. FGF4 was replenished the next day at time zero, and SAPK inhibitor SP600125 (10 μm or 50 μM) was co-incubated with TSCs for 2 days at the indicated O2 levels±SP600125. Markers were quantitated using qPCR. (FIG. 1B) is a graph derived from data in (FIG. 1A), where the highest inhibited group was subtracted from the uninhibited group at each O2 level (the subtracted difference is shown as a color inset in the histogram bars of highest expression of each marker). […]
# FIG. 2. […] RNA was isolated and quantitated using qPCR.
# Cell lines and culture conditions. […] Quantitative removal of gas phase O2 requires 30 min in anaerobic bags, i.e., there was only a minimal period when 20% O2 was ambient to media that was pre-equilibrated under 0, 0.5, or 2% O2. […]
# RNA isolation and quantitative reverse transcription-PCR (qRT-PCR). […] Briefly, DNase-treated total RNA was isolated following cDNA preparation using QuantiTect Reverse Transcription Kit […] (Qiagen). […]
# [6] = 4 hr, 200 mM sorbitol + PD98059
# [7] = 20% O2, FGF4 removed, sublethal concentration
# p38MAPK, sequence (P47811 whole entry): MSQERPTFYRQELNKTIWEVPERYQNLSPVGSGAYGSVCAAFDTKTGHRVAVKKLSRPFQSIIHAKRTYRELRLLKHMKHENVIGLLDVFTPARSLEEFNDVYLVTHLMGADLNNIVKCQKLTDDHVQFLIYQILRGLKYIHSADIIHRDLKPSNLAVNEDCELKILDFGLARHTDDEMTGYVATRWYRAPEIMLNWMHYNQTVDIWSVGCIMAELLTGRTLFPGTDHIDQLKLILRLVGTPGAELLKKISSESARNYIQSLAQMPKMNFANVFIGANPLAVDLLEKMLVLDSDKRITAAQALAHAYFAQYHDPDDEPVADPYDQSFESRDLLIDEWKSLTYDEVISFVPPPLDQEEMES
# T1 sequence (P31750 whole entry): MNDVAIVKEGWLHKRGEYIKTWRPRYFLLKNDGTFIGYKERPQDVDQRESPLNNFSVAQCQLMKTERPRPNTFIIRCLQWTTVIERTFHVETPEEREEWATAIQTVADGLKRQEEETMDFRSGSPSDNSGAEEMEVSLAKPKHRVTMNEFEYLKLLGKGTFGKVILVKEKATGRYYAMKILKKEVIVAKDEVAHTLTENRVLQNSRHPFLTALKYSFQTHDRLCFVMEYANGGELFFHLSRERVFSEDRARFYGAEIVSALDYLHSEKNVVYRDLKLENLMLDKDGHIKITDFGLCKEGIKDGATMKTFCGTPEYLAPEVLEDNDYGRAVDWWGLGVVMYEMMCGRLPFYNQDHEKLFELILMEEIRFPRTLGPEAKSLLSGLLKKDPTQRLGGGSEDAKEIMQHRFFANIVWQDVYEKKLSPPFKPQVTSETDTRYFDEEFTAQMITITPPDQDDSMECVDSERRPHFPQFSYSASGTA
compound,measurement,setting,value
"O=C(O)C(Cl)Cl [DCA, dichloroacetate]",PL2 mRNA increase,TSCs; 2% O2,2 fold
same,synTa mRNA increase,TSCs; 2% O2,2 fold
"N#CC(C#N)=NNc1ccc(OC(F)(F)F)cc1 [FCCP, Carbonyl cyanide 4-(trifluoromethoxy)phenylhydrazone]",JC1 stain fluorescence,[1],no fluorescence
same,effect on Δψm,[1],completely depolarizes
O=c1cc(N2CCOCC2)oc2c(-c3ccccc3)cccc12 [LY294002],inhibition of AKT activation (average),AKT,88%
CC(C)C[C@@H](C=O)NC(=O)[C@H](CC(C)C)NC(=O)[C@H](CC(C)C)NC(=O)OCc1ccccc1 [MG132] (Cbz-Leu-Leu-Leu-aldehyde),reversal of stress-induced Nanog loss,"[2]; 10 μM MG132, 200 mM sorbitol",93%
same,reversal of stress-induced Oct4 loss,"[2]; 10 μM MG132, 200 mM sorbitol",75%
same,reversal of stress-induced Rex1 loss,"[2]; 10 μM MG132, 200 mM sorbitol",310%
same,"stress-induced loss of Oct4, Nanog, and Rex1",[2],prevented
COc1cccc(-c2cc(=O)c3ccccc3o2)c1N [PD98059],Nanog expression relative to unstressed level,[3]; [6],2.5 times
same,expression of Oct4 and Rex1,[3]; [6],remained at the unstressed baseline
same,Oct4 recovery,"[3]; 24 hr, 200 mM sorbitol + inhibitor",did not prevent
same,inhibition of ERK1/2 activation (average),"ERK1/2; mESCs, 4 hr, 200 mM sorbitol",30%
same,"Nanog protein expression, inhibitor only","[4]; 24 hr inhibitor only, vs 24 hr no inhibitor, AKTi 10, LY294002 10, L-JNKi-1 2, SB202190 10, U0126 40, PD98059 20 μM",*1.54 ± 0.10%
Oc1ccc(-c2nc(-c3ccncc3)c(-c3ccc(F)cc3)[nH]2)cc1 [SB202190],inhibition of p38MAPK activation (average),p38MAPK,60%
same,Nanog expression,"[3]; 24 hr ongoing stress, 200 mM sorbitol + SB202190",10%
same,Oct4 expression,"[3]; 24 hr, 200 mM sorbitol + SB202190, did not recover from 4-h nadir",50 % of unstressed levels
Oc1c2ccccc2c2c3c(cccc13)N=N2 [SP600125],"multipotency factors Cdx2, Id2, Errβ mRNA",[5],no effect
N#CC(=C(/N)Sc1ccccc1N)/C(C#N)=C(\N)Sc1ccccc1N [U0126],Oct4 or Nanog loss during stress,[3],did not prevent
same,Oct4 recovery,[3],prevented
same,Rex1 expression,[3],remained at unstressed levels
same,inhibition of ERK1/2 activation (average),ERK1/2,87%
same,"Nanog protein expression, inhibitor only",[4],0.94 ± 0.15%
same,"Oct4 protein expression, inhibitor only",[4],1.16 ± 0.31%
same,"Rex1 protein expression, inhibitor only",[4],0.72 ± 0.06%
CC(=O)N[C@@H](CSC(=O)[C@]1([C@@H](O)C(C)C)NC(=O)[C@H](C)[C@@H]1O)C(=O)O [lactacystin],"stress-induced loss of Oct4, Nanog, and Rex1",[2],prevented
antimycin A,Ctsq mRNA inhibited,TSCs; [7],81%
same,PL2 mRNA inhibited,TSCs; [7],98%
same,synTa mRNA inhibited,TSCs; [7],42%
